The values below come from ChEMBL document CHEMBL3882725, “Indazole derivatives as JNK inhibitors and compositions and methods related thereto” (2002).

Each structure is given as a SMILES string. A value given as a limit tells only on which side of the number the result lay.

The assay concerns the target Mitogen-activated protein kinase 9 (Homo sapiens, UniProt P45984). As to the kind of experiment: Inhibition of His6-tagged JNK2 (unknown origin) assessed as reduction in c-Jun phosphorylation using GST-c-Jun (1 to 79 residues) and [gamma32P]ATP incubated for 1 hr by scintillation counting assay.

Sequence of Mitogen-activated protein kinase 9 (P45984 whole entry, the tested form may be a part): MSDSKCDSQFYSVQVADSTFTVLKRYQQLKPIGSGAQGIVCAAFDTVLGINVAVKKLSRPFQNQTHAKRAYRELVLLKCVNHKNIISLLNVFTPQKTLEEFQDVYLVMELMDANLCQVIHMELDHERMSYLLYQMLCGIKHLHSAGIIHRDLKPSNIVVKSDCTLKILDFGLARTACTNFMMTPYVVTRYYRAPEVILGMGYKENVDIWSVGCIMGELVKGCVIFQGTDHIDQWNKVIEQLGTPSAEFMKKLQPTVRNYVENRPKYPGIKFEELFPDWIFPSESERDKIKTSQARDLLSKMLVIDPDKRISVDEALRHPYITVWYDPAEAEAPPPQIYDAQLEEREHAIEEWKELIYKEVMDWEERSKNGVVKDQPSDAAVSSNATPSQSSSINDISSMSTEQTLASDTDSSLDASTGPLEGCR

For the molecule `O=C(Nc1ccc2[nH]nc(-c3ccccc3)c2c1)c1ccccc1`, the IC50 fell in the range of 1 to 10 µM.

For `O=C(/C=C/c1ccccc1)Nc1cccc(-c2n[nH]c3ccc(-c4nc[nH]n4)cc23)c1`, the concentration for half-maximal inhibition (IC50) was 1 to 10 µM. The value for `NC(=O)c1ccc2[nH]nc(-c3cccc(NC(=O)C4CCNCC4)c3)c2c1` was 1 to 10 µM. With `CN(C)CCCOc1ccc(-c2n[nH]c3ccc(-c4nnn[nH]4)cc23)cc1`, the 50% inhibitory concentration (IC50) lay in the range of 0.5 to 10 µM. As for `COc1ccc(-c2n[nH]c3ccc([N+](=O)[O-])cc23)cc1`, the figure is at most 10 µM; as for `O=C(CC1CCCCC1)Nc1cccc(-c2n[nH]c3ccc(-c4nc[nH]n4)cc23)c1`, 0.5 to 10 µM; as for `CC(C)c1cccc(-c2n[nH]c3ccc(-c4nc[nH]n4)cc23)c1`, 1 to 10 µM. With `O=C(NC1CCC1)c1cccc(-c2n[nH]c3ccc(-c4nc[nH]n4)cc23)c1`, the IC50 lay in the range of 0.5 to 10 µM.

Take `CC(O)C(=O)Nc1cccc(-c2n[nH]c3ccc(-c4nc[nH]n4)cc23)c1` (stereo unspecified): the concentration for half-maximal inhibition (IC50) lay within 0.5 to 10 µM. `O=C(NCc1ccc(F)cc1)c1cccc(-c2n[nH]c3ccc(-c4ncn[nH]4)cc23)c1`: the IC50 is 0.5 to 10 µM.

As for `O=C(N[C@H]1C[C@@H]1c1ccccc1)c1cccc(-c2n[nH]c3ccc(-c4nc[nH]n4)cc23)c1`, the IC50 was 0.5 to 10 µM. Take `O=C(Nc1cccc(-c2n[nH]c3ccc(-c4nc[nH]n4)cc23)c1)C(O)c1ccccc1` (stereo unspecified): the IC50 fell in the range of 0.5 to 10 µM. For the molecule `O=C(CCN1CCCCC1)Nc1cccc(-c2n[nH]c3ccc(-c4nc[nH]n4)cc23)c1`, the IC50 fell in the range of 1 to 10 µM.

With `c1cc(OCCN2CCCCCC2)cc(-c2n[nH]c3ccc(-c4ncn[nH]4)cc23)c1`, the concentration for half-maximal inhibition (IC50) is 1 to 10 µM. As for `O=C(Nc1ccc2[nH]nc(-c3ccc(F)cc3)c2c1)c1ccncc1`, the figure is 1 to 10 µM; as for `C(=C\c1n[nH]c2ccc(-c3nnn[nH]3)cc12)/c1ccccc1`, 0.5 to 10 µM.

In the case of `NC(=O)c1ccc2[nH]nc(-c3cccc(NC(=O)c4ccco4)c3)c2c1`, the half-inhibitory concentration (IC50) was 0.5 to 10 µM.

On to `CC(C)(NC(=O)c1cccc(-c2n[nH]c3ccc(-c4ncn[nH]4)cc23)c1)c1ccccc1`, for which the IC50 lay in the range of 0.5 to 10 µM.

Regarding `c1cncc(COc2cccc(-c3n[nH]c4ccc(-c5nc[nH]n5)cc34)c2)c1`, the half-maximal inhibitory concentration (IC50) lay within 1 to 10 µM. For `O=C(Nc1cccc(-c2n[nH]c3ccc(-c4nc[nH]n4)cc23)c1)c1ccc(Cl)nc1`, the IC50 fell in the range of 1 to 10 µM. The value for `NC(=O)c1ccc2[nH]nc(-c3cccc(NC(=O)C4CC4)c3)c2c1` was 1 to 10 µM; that for `Nc1cccc(C(=O)Nc2ccc3[nH]nc(-c4ccccc4)c3c2)c1` was 1 to 10 µM.

Turning to `CN1CCN(CC(=O)Nc2cccc(-c3n[nH]c4ccc(-c5nc[nH]n5)cc34)c2)CC1`, the IC50 lay in the range of 1 to 10 µM. The value for `O=C(Cc1ccccc1)c1ccc2[nH]nc(-c3ccc(F)cc3)c2c1` was at most 10 µM; that for `Oc1ccc(-c2nnc(-c3ccc4[nH]nc(-c5ccc(F)cc5)c4c3)[nH]2)cc1` was 1 to 10 µM; that for `Nc1nnc(-c2ccc3[nH]nc(-c4ccc(F)cc4)c3c2)[nH]1` was 1 to 10 µM. Turning to `O=C(NCCC1CCN(Cc2ccccc2)CC1)c1cccc(-c2n[nH]c3ccc(-c4nc[nH]n4)cc23)c1`, the concentration for half-maximal inhibition (IC50) lay in the range of 0.5 to 10 µM. The value for `CN(C)CCOc1cccc(-c2n[nH]c3ccc(-c4ncn[nH]4)cc23)c1` was 1 to 10 µM; that for `O=C(NCCN1CCCCC1)c1cccc(-c2n[nH]c3ccc(-c4nc[nH]n4)cc23)c1` was 0.5 to 10 µM.

As for `O=C(NCCN1CCOCC1)c1cccc(-c2n[nH]c3ccc(-c4nc[nH]n4)cc23)c1`, the IC50 lay in the range of 0.5 to 10 µM. As for `CCOC(=O)c1ccc2[nH]nc(-c3ccc(F)cc3)c2c1`, the figure is 1 to 10 µM. In the case of `c1cc(OCCN2CCNCC2)cc(-c2n[nH]c3ccc(-c4ncn[nH]4)cc23)c1`, the half-maximal inhibitory concentration (IC50) fell in the range of 1 to 10 µM.

On to `COCC(=O)Nc1cccc(-c2n[nH]c3ccc(C(N)=O)cc23)c1`, for which the IC50 lay within 1 to 10 µM. As for `O=C(O)CCc1nnc(-c2ccc3[nH]nc(-c4ccc(F)cc4)c3c2)[nH]1`, the IC50 is 1 to 10 µM. The value for `Fc1ccc(-c2n[nH]c3ccc(-c4ncc[nH]4)cc23)cc1` was 1 to 10 µM. `COCCNC(=O)c1cccc(-c2n[nH]c3ccc(-c4nc[nH]n4)cc23)c1`: the IC50 was in the range of 0.5 to 10 µM. The value for `Fc1ccc(-c2n[nH]c3ccc(-c4n[nH]c(CN5CCCCC5)n4)cc23)cc1` was 1 to 10 µM; that for `COc1ccccc1-c1n[nH]c2ccc(-c3nnn[nH]3)cc12` was 1 to 10 µM; that for `O=C(CCN1CCCCC1)Nc1cccc(-c2n[nH]c3ccc(-c4nn[nH]n4)cc23)c1` was 0.5 to 10 µM. With `O=C(O)c1ccc(CCc2ccc3[nH]nc(-c4ccc(F)cc4)c3c2)cc1`, the 50% inhibitory concentration (IC50) was at most 10 µM. As for `COc1ccc(-c2n[nH]c3ccc(C(N)=O)cc23)cc1OC`, the figure is 1 to 10 µM; as for `O=C(NCCc1ccccc1)c1cccc(-c2n[nH]c3ccc(-c4nc[nH]n4)cc23)c1`, 0.5 to 10 µM; as for `NC(=O)c1ccc2[nH]nc(-c3ccc4c(c3)CCO4)c2c1`, 1 to 10 µM. `Clc1ccc(-c2n[nH]c3ccc(-c4nc[nH]n4)cc23)cc1Cl`: the 50% inhibitory concentration (IC50) fell in the range of 1 to 10 µM. The value for `CN(C)c1ccc(-c2n[nH]c3ccc(C(N)=O)cc23)cc1` was 1 to 10 µM; that for `NC(=O)c1ccc2[nH]nc(-c3cccc(NC(=O)c4cccs4)c3)c2c1` was 1 to 10 µM. The value for `O=C(Nc1ccncc1)c1cccc(-c2n[nH]c3ccc(-c4nc[nH]n4)cc23)c1` was 0.5 to 10 µM; that for `Fc1ccc(-c2n[nH]c3ccc(CCc4ccccc4)cc23)cc1` was at most 10 µM; that for `c1ccc2ncc(-c3n[nH]c4ccc(-c5nc[nH]n5)cc34)cc2c1` was 1 to 10 µM. Regarding `NC(=O)c1ccc2[nH]nc(-c3cccc(NC(=O)Cc4ccc(F)cc4Cl)c3)c2c1`, the IC50 lay in the range of 1 to 10 µM. The value for `CN(C)CCCOc1cccc(-c2n[nH]c3ccc(-c4nnn[nH]4)cc23)c1` was 0.5 to 10 µM. The value for `O=C(O)c1ccc2[nH]nc(-c3ccc(F)cc3)c2c1` was 1 to 10 µM. For `CC(=O)Nc1ccc2[nH]nc(-c3ccccc3)c2c1`, the half-inhibitory concentration (IC50) is 1 to 10 µM. In the case of `Cc1ccc2[nH]nc(-c3ccc(F)cc3)c2c1`, the IC50 is at most 10 µM. Turning to `c1coc(-c2n[nH]c3ccc(-c4nnn[nH]4)cc23)c1`, the 50% inhibitory concentration (IC50) was in the range of 0.5 to 10 µM. Consider `O=C(Nc1cccc(-c2n[nH]c3ccc(-c4nc[nH]n4)cc23)c1)c1ccc(Cl)cc1Cl`, for which the half-maximal inhibitory concentration (IC50) fell in the range of 1 to 10 µM. The value for `c1ccc2cc(-c3n[nH]c4ccc(-c5ncn[nH]5)cc34)ccc2c1` was 1 to 10 µM.

On to `O=C(Nc1cccc(-c2n[nH]c3ccc(-c4nc[nH]n4)cc23)c1)C1CCCC1`, for which the IC50 lay in the range of 1 to 10 µM. `Nc1cccc(NC(=O)c2ccc3[nH]nc(-c4ccc(F)cc4)c3c2)c1`: the half-inhibitory concentration (IC50) lay within 1 to 10 µM. The value for `CCOC(=O)CCCc1nnc(-c2ccc3[nH]nc(-c4ccc(F)cc4)c3c2)[nH]1` was 1 to 10 µM; that for `O=C(O)Cc1ccc(NC(=O)c2ccc3[nH]nc(-c4ccc(F)cc4)c3c2)cc1` was 1 to 10 µM; that for `CC(C)C(=O)Nc1cccc(-c2n[nH]c3ccc(-c4nc[nH]n4)cc23)c1` was 0.5 to 10 µM.

Take `O=C(Nc1cccc(-c2n[nH]c3ccc(-c4nn[nH]n4)cc23)c1)c1cccnc1`: the half-inhibitory concentration (IC50) lay in the range of 0.5 to 10 µM. The value for `COC(=O)c1cccc(C(=O)Nc2ccc3[nH]nc(-c4ccc(F)cc4)c3c2)c1` was at most 10 µM; that for `COc1ccc2cc(-c3n[nH]c4ccc(-c5nc[nH]n5)cc34)ccc2c1` was 1 to 10 µM. On to `COCC(=O)Nc1ccc(-c2n[nH]c3ccc(-c4nc[nH]n4)cc23)cc1`, for which the IC50 was 1 to 10 µM.
